Laboratory results taken from the NIST ThermoML archive (doi:10.1021/je700152c).
± gives the expanded uncertainty stated by the source.

Test: molar heat capacity at saturation pressure

CCCCn1cc[n+](C)c1.Cc1ccc(S(=O)(=O)[O-])cc1 [1-butyl-3-methylimidazolium tosylate]
molar heat capacity [J/K/mol]
Conditions	Crystal 1	Metastable crystal
205.31 K	–	319.1 ± 3.4
205.46 K	296.26 ± 3.1	–
207.12 K	298.09 ± 3.1	–
207.15 K	298.12 ± 3.1	–
207.23 K	–	320.66 ± 3.4
207.42 K	298.43 ± 3.1	–
209.08 K	300.36 ± 3.1	–
209.12 K	300.45 ± 3.1	–
209.16 K	–	322.21 ± 3.4
209.38 K	300.6 ± 3.1	–
211.04 K	302.62 ± 3.2	–
211.08 K	–	323.45 ± 3.4
211.09 K	302.68 ± 3.2	–
211.34 K	302.99 ± 3.2	–
213 K	304.79 ± 3.2	325 ± 3.4
213.05 K	304.92 ± 3.2	–
213.31 K	305.26 ± 3.2	–
214.92 K	–	326.24 ± 3.4
214.96 K	307.15 ± 3.2	–
215.01 K	307.18 ± 3.2	–
215.27 K	307.65 ± 3.2	–
216.84 K	–	328.11 ± 3.4
216.91 K	309.57 ± 3.2	–
216.97 K	309.61 ± 3.2	–
217.22 K	309.92 ± 3.2	–
218.76 K	–	329.66 ± 3.4
218.87 K	311.96 ± 3.1	–
218.93 K	311.96 ± 3.1	–
219.18 K	312.59 ± 3.4	–
220.68 K	–	331.83 ± 3.4
220.82 K	314.45 ± 3.4	–
220.88 K	314.45 ± 3.4	–
221.13 K	314.76 ± 3.4	–
222.6 K	–	333.69 ± 3.4
222.77 K	317.86 ± 3.4	–
222.83 K	317.24 ± 3.4	–
223.07 K	317.55 ± 3.4	–
224.51 K	–	336.8 ± 3.4
224.72 K	321.28 ± 3.4	–
224.77 K	321.9 ± 3.4	–
225.01 K	321.59 ± 3.4	–
226.41 K	–	340.21 ± 3.4
226.65 K	326.86 ± 3.4	–
226.7 K	326.55 ± 3.4	–
226.94 K	328.11 ± 3.4	–
228.3 K	–	347.04 ± 3.7
228.56 K	332.14 ± 3.4	–
228.61 K	331.83 ± 3.4	–
228.85 K	333.69 ± 3.4	–
230.18 K	–	352.94 ± 3.7
230.47 K	336.18 ± 3.4	–
230.52 K	335.56 ± 3.4	–
230.75 K	336.8 ± 3.4	–
232.06 K	–	355.11 ± 3.7
232.37 K	339.9 ± 3.4	–
232.43 K	338.97 ± 3.4	–
232.65 K	340.21 ± 3.4	–
233.94 K	–	356.97 ± 3.7
234.27 K	341.76 ± 3.4	–
234.33 K	341.76 ± 3.4	–
234.55 K	342.7 ± 3.4	–
235.82 K	–	358.22 ± 3.7
236.17 K	343.94 ± 3.7	–
236.24 K	343.01 ± 3.4	–
236.45 K	344.25 ± 3.7	–
237.7 K	–	359.46 ± 3.7
238.07 K	346.11 ± 3.7	–
238.14 K	345.18 ± 3.7	–
238.35 K	346.42 ± 3.7	–
239.58 K	–	361.01 ± 3.7
239.97 K	348.28 ± 3.7	–
240.04 K	347.35 ± 3.7	–
240.25 K	348.9 ± 3.7	–
241.45 K	–	362.87 ± 3.7
241.87 K	350.46 ± 3.7	–
241.94 K	349.52 ± 3.7	–
242.14 K	350.77 ± 3.7	–
243.33 K	–	364.42 ± 3.7
243.76 K	352.32 ± 3.7	–
243.83 K	351.7 ± 3.7	–
244.04 K	352.94 ± 3.7	–
245.21 K	–	365.98 ± 3.7
245.66 K	354.49 ± 3.7	–
245.73 K	353.87 ± 3.7	–
245.93 K	355.11 ± 3.7	–
247.08 K	–	367.84 ± 3.7
247.55 K	356.97 ± 3.7	–
247.62 K	356.04 ± 3.7	–
247.82 K	357.29 ± 3.7	–
248.96 K	–	369.39 ± 3.7
249.44 K	359.15 ± 3.7	–
249.51 K	358.53 ± 3.7	–
249.71 K	359.46 ± 3.7	–
250.83 K	–	371.25 ± 3.7
251.33 K	361.32 ± 3.7	–
251.4 K	360.39 ± 3.7	–
251.59 K	361.63 ± 3.7	–
252.7 K	–	372.81 ± 3.7
253.22 K	363.49 ± 3.7	–
253.29 K	362.87 ± 3.7	–
253.47 K	363.8 ± 3.7	–
254.58 K	–	374.67 ± 3.7
255.11 K	365.67 ± 3.7	–
255.17 K	364.74 ± 3.7	–
255.35 K	365.98 ± 3.7	–
256.45 K	–	376.53 ± 4
256.99 K	367.84 ± 3.7	–
257.06 K	367.22 ± 3.7	–
257.23 K	368.15 ± 3.7	–
258.32 K	–	378.39 ± 4
258.88 K	370.01 ± 3.7	–
258.94 K	369.08 ± 3.7	–
259.11 K	370.32 ± 3.7	–
260.2 K	–	380.26 ± 4
260.77 K	372.19 ± 3.7	–
260.82 K	371.56 ± 3.7	–
261 K	372.5 ± 3.7	–
262.07 K	–	381.81 ± 4
262.65 K	374.36 ± 3.7	–
262.71 K	373.43 ± 3.7	–
262.87 K	374.67 ± 3.7	–
263.94 K	–	383.36 ± 4
264.53 K	376.22 ± 4	–
264.59 K	375.6 ± 3.7	–
264.75 K	376.53 ± 4	–
265.82 K	–	385.53 ± 4
266.42 K	378.39 ± 4	–
266.47 K	377.46 ± 4	–
266.63 K	378.39 ± 4	–
267.69 K	–	387.4 ± 4
268.31 K	380.57 ± 4	–
268.36 K	379.63 ± 4	–
268.52 K	380.88 ± 4	–
269.56 K	–	388.95 ± 4
270.19 K	382.43 ± 4	–
270.25 K	381.81 ± 4	–
270.4 K	382.74 ± 4	–
271.43 K	–	391.12 ± 4
272.08 K	384.6 ± 4	–
272.14 K	383.36 ± 4	–
272.29 K	384.6 ± 4	–
273.3 K	–	393.6 ± 4
273.97 K	386.46 ± 4	–
274.03 K	385.53 ± 4	–
274.19 K	386.46 ± 4	–
275.16 K	–	396.09 ± 4
275.87 K	388.64 ± 4	–
275.92 K	388.02 ± 4	–
276.08 K	388.33 ± 4	–
277.01 K	–	399.5 ± 4
277.76 K	391.12 ± 4	–
277.8 K	390.5 ± 4	–
277.97 K	390.81 ± 4	–
278.86 K	–	403.54 ± 4
279.64 K	393.6 ± 4	–
279.67 K	393.29 ± 4	–
279.85 K	393.6 ± 4	–
280.7 K	–	407.57 ± 4.3
281.51 K	396.71 ± 4	–
281.53 K	397.02 ± 4	–
281.71 K	397.02 ± 4	–
282.53 K	–	410.68 ± 4.3
